Data set [1] has as its system NCI-60 human tumor cell lines. Kind of data set: cells.
In data set [2] the test system is NCI-H522 cells. Kind of data set: Time-lapse microscopy of cell death. The format is cell-based, human. As to conditions: for Time from initiation of ferroptosis until most/all cells were dead: CETZOLE-1 20 μM (most of the cells), HY-1 5 μM (all cells); for Start of ferroptosis after treatment: CETZOLE-1 20 μM, HY-1 5 μM.
The subject of data set [3] is NCI-H23 cell line. The conditions noted are these: one-dose; ref public data base of NCI (NSC 759852); cited from earlier work.
The subject of data set [4] is DU-145 cells. As to conditions: one-dose; ref public data base of NCI (NSC 759852); cited from earlier work.
The test system of data set [5] is RPMI-8226. As to conditions: read-out: GI50, RPMI-8226; five-dose assay; ref public data base of NCI (NSC 759852); cited from earlier work.
Data set [6] deals with NCI-H23. The conditions noted are these: read-out: GI50, NCI-H23; five-dose assay; ref public data base of NCI (NSC 759852); cited from earlier work.
Data set [7] concerns SF-539 cell line. The conditions noted are these: read-out: GI50, SF-539; five-dose assay; ref public data base of NCI (NSC 759852); cited from earlier work.
The subject of data set [8] is LOXIMVI. As to conditions: read-out: GI50, LOXIMVI; five-dose assay; ref public data base of NCI (NSC 759852); cited from earlier work.
Data set [9] deals with IGROV-1. As to conditions: read-out: GI50, IGROV-1; five-dose assay; ref public data base of NCI (NSC 759852); cited from earlier work.
In data set [10] the test system is PC-3. As to conditions: read-out: GI50, PC-3; five-dose assay; ref public data base of NCI (NSC 759852); cited from earlier work.
The subject of data set [11] is DU-145. The conditions noted are these: read-out: GI50, DU-145; five-dose assay; ref public data base of NCI (NSC 759852); cited from earlier work.
The subject of data set [12] is HS578. As to conditions: read-out: GI50, HS578; five-dose assay; ref public data base of NCI (NSC 759852); cited from earlier work.
The test system of data set [13] is SH-SY5Y cells. In words: MTT cell viability assay, SH-SY5Y neuroblastoma cells. The format is cell-based, human. As to conditions: 0.5×, 1×, 2× IC50 of the controls on H522; HY-1 at 2.32 μM.
The subject of data set [14] is PC-12 cells. In words: MTT cytotoxicity on undifferentiated and differentiated PC-12 cells. The format is cell-based. The conditions noted are these: MTT after 24 h of treatment.
The subject of data set [15] is HDAC 1, 2, 3, 4, 6, and 8. The conditions noted are these: recombinant HDAC proteins.
For data set [16], the system named is RPE cells. Kind of data set: cells. As to conditions: Homo sapiens, read-out: IC50 on RPE cells.
In data set [17] the test system is lipid peroxides in NCI-H522 cells. In words: C11-BODIPY lipid peroxidation assay. The format is cell-based, human. The conditions noted are these: NCI-H522, 10 μM, 6 h.
The test system of data set [18] is LOXIMVI. Kind of data set: cells. As to conditions: Homo sapiens, LOX IMVI, read-out: GI50, LOXIMVI.
The subject of data set [19] is IGROV-1. In words: cells. The conditions noted are these: Homo sapiens, IGROV-1, read-out: GI50, IGROV-1.
The test system of data set [20] is PC-3. In words: cells. As to conditions: Homo sapiens, PC-3, read-out: GI50, PC-3.
For data set [21], the system named is DU-145. In words: cells. As to conditions: Homo sapiens, DU-145, read-out: GI50, DU-145.
Data set [22] relates to Class I HDACs. As to conditions: read-out: IC50 for Class I HDACs; recombinant HDAC proteins.

Molecules are shown by their SMILES. Where two headings read alike, the source gives them in different places. A value given as a limit tells only on which side of the number the result lay.

For `C#Cc1nc(/C=C\CCCCCC(=O)NO)cs1` [HY-2, (Z)-8-(2-Ethynylthiazol-4-yl)-N-hydroxyoct-7-enamide], in data set [1] (read-out: Average GI50), the GI50 was determined as 2.18 µM.

Consider `O=C(CCCCCCC(=O)Nc1ccccc1)NO` [SAHA], for which, in data set [2] (SAHA 5 μM), the “Time after treatment at which cells were still alive” value is ≥ 60 h. The “Growth %, NCI-H23” value in data set [3] is reported as 3.30%. Also, the “Growth %, DU-145” value in data set [4] is listed as 3.5%. For the same compound, the GI50 in data set [5] is 1.5 µM; in data set [6] it was 2 µM; in data set [7], 2 µM; in data set [8], 1.25 µM; in data set [9] it was 2 µM; in data set [10] it was 1.58 µM. Besides, the GI50 in data set [11] is 1.25 µM; in [12], 2 µM.

For `C#Cc1nc(C(=O)NCCCCCCC(=O)OC)cs1` [FC-1, Methyl 7-(2-Ethynylthiazole-4-carboxamido)heptanoate], the “Effect on neuronal cells (SH-SY5Y viability, neurotoxicity)” value (from here on “Effect on neuronal cells”) in data set [13] is on record as “significant neurotoxicity”. Also, the “Effect on PC-12 cells (differentiated and undifferentiated)” value in data set [14] was “resistant”.

Take `O=C(/C=C/C=C/c1csc(Br)n1)NO` [HC-4, (2E,4E)-5-(2-Bromothiazol-4-yl)-N-hydroxypenta-2,4-dienamide]: the HDAC inhibitory activity result in [15] is “poor HDAC inhibitory activity”.

Regarding `C#Cc1nc(/C=C/CCCCCC(=O)NO)cs1` [HY-3, (E)-8-(2-Ethynylthiazol-4-yl)-N-hydroxyoct-7-enamide], the GI50 in data set [1] (read-out: Average GI50) is 3.39 µM.

Take `O=C(CCCCCCNC(=O)c1csc(Br)n1)NO` [HC-1, 2-Bromo-N-(7-(hydroxyamino)-7-oxoheptyl)thiazole-4-carboxamide]: the “Effect on neuronal cells” value in [13] is given as “very mild toxicity”. Moreover, the GI50 in data set [1] (read-out: Average GI50) is 1.51 µM.

For `C#Cc1nc(/C=C/C=C/C(=O)NO)cs1` [HY-4, (2E,4E)-5-(2-Ethynylthiazol-4-yl)-N-hydroxypenta-2,4-dienamide], in data set [13], the “Effect on neuronal cells” value is given as “not showing attenuated neurotoxicity”. For the same compound, the HDAC inhibitory activity result in data set [15] is reported as “poor HDAC inhibitory activity”.

Consider `C#Cc1nc(C2=C(C)[C@@H](O)CC2)cs1` [CETZOLE-1], for which, in [2], the “Time from initiation of ferroptosis until most/all cells were dead” value is ≤ 8 h and the “Start of ferroptosis after treatment” value is recorded as “approximately 12 h”. The IC50 in data set [16] was > 30 µM.

With `COC(=O)CCCCCCNC(=O)c1csc(Br)n1` [NC-1, Methyl 7-(2-Bromothiazole-4-carboxamido)heptanoate], in data set [13], the “Effect on neuronal cells” value was “no effect”.

On to `C#Cc1nc(C(=O)NCCCCCCC(=O)NO)cs1` [HY-1, 2-Ethynyl-N-(7-(hydroxyamino)-7-oxoheptyl)thiazole-4-carboxamide], for which the “Effect on neuronal cells” value in data set [13] is “no neurotoxic effects”. In addition, in data set [14], the “Effect on PC-12 cells (differentiated and undifferentiated)” value is recorded as “behaved like the HDAC control HC-1”. Moreover, in data set [17], the “Lipid peroxide levels (C11-BODIPY 581/591)” value was “increased levels of lipid peroxides”. In addition, in [2], the “Time from initiation of ferroptosis until most/all cells were dead” value is on record as ≤ 2 h. In addition, in data set [2], the “Start of ferroptosis after treatment” value worked out at 8 h. Moreover, the concentration for 50% growth inhibition (GI50) in [1] (read-out: Average GI50) stood at 0.85 µM; in data set [1] (read-out: GI50 values as low as (best cell line)) it was 0.02 µM; in data set [18] it was 0.02 µM; in [19] it was 0.57 µM; in data set [20], 2 µM; in data set [21], 0.36 µM.

In the case of `C#Cc1nc(/C=C/C(=O)NO)cs1` [HY-5, (E)-3-(2-Ethynylthiazol-4-yl)-N-hydroxyacrylamide], the IC50 in data set [22] was in the range of 0.89 to 1.1 µM. For the same compound, in data set [1] (read-out: Average GI50), the GI50 amounted to 2.47 µM.

The term GI50 denotes the concentration that inhibits growth by half. Usually IC50 stands for the point on the concentration scale where inhibition reaches its midpoint.

The values above are taken from PMC10257520 (Journal of medicinal chemistry, 2022).
